From US20080220977A1, “Computational strategy for discovering druggable gene networks from genome-wide RNA expression profiles” (GNI Ltd., priority 2005, published 2008)

Tested on: human endothelial cells
Experiment: Fenofibrate time-course microarray in human endothelial cells, GO Term Finder clusters of selected genes
Details: 25 μM fenofibrate, 18 hours microarray

SMILES: CC(C)OC(=O)C(C)(C)Oc1ccc(C(=O)c2ccc(Cl)cc2)cc1 [fenofibrate]
- # genes in GO annotation: cellular lipid metabolism (GO:0044255) (overexpressed genes): 21
- # genes in GO annotation: cholesterol biosynthesis (GO:0006695) (overexpressed genes): 5
- # genes in GO annotation: cholesterol metabolism (GO:0008203) (overexpressed genes): 7
- # genes in GO annotation: lipid metabolism (GO:0006629) (overexpressed genes): 25
- # genes in GO annotation: steroid biosynthesis (GO:0006694) (overexpressed genes): 7
- # genes in GO annotation: steroid metabolism (GO:0008202) (overexpressed genes): 10
- # genes in GO annotation: sterol biosynthesis (GO:0016126) (overexpressed genes): 6
- # genes in GO annotation: sterol metabolism (GO:0016125) (overexpressed genes): 8
- # genes in GO annotation: M phase (GO:0000279) (suppressed genes): 17
- # genes in GO annotation: M phase of mitotic cell cycle (GO:0000087) (suppressed genes): 15
- # genes in GO annotation: RNA splicing, via transesterification reactions (GO:0000375) (suppressed genes): 9
- # genes in GO annotation: RNA splicing, via transesterification reactions with bulged adenosine as nucleophile (GO:0000377) (suppressed genes): 9
- # genes in GO annotation: cell cycle (GO:0007049) (suppressed genes): 35
- # genes in GO annotation: mRNA metabolism (GO:0016071) (suppressed genes): 13
- # genes in GO annotation: mitosis (GO:0007067) (suppressed genes): 15
- # genes in GO annotation: mitotic cell cycle (GO:0000278) (suppressed genes): 19
- # genes in GO annotation: nuclear mRNA splicing, via spliceosome (GO:0000398) (suppressed genes): 9
- # genes in GO annotation: regulation of cell cycle (GO:0000074) (suppressed genes): 22
